# Assay results from ChEMBL document CHEMBL2331380, “Evaluation of potential Myt1 kinase inhibitors by TR-FRET based binding assay” (Eur J Med Chem, 2013).
# Experiments:
# [1] = Binding affinity to human full-length His-tagged Myt1 kinase expressed in HEK293 cells at 3 ug/ml by TR-FRET based binding assay
# [2] = Binding affinity to human full-length His-tagged Myt1 kinase expressed in HEK293 cells at 30 ug/ml by TR-FRET based binding assay
Compound,Activity [1],Activity [2]
CCCCCCCCCCCCCCCC(=O)NC[C@H]1O[C@@H](OC[C@@H](COC(=O)CCCCCCCCCCCCCCC)OC(=O)CCCCCCCCCCCCCCC)[C@H](O)[C@@H](O)[C@H]1O,< 5%,< 5%
CCCCCCCCCCCCCCCC(=O)NC[C@H]1O[C@H](OC[C@@H](COC(=O)CCCCCCCCCCCCCCC)OC(=O)CCCCCCCCCCCCCCC)[C@H](O)[C@@H](O)[C@@H]1O,< 5%,< 5%
CCCCCCCC(=O)NC[C@H]1O[C@@H](OC[C@@H](COC(=O)CCCCCCC)OC(=O)CCCCCCC)[C@H](O)[C@@H](O)[C@@H]1O,< 5%,< 5%
CCCCCCCCCCCCCCCC(=O)NC[C@H]1O[C@@H](OC[C@@H](COC(=O)CCCCCCCCCCCCCCC)OC(=O)CCCCCCCCCCCCCCC)[C@H](O)[C@@H](O)[C@@H]1O,< 5%,< 5%

# Other lines, results leading:
Activity [1],Activity [2],Compound
< 5%,< 5%,CCCCCCCCCCCCCCCC(=O)NC[C@H]1O[C@H](OC[C@@H](COC(=O)CCCCCCCCCCCCCCC)OC(=O)CCCCCCCCCCCCCCC)[C@@H](O)[C@@H](O)[C@@H]1O
< 5%,< 5%,CCCCCCCCCCCCCCCC(=O)NC[C@H]1O[C@H](OC[C@@H](COC(=O)CCCCCCCCCCCCCCC)OC(=O)CCCCCCCCCCCCCCC)[C@H](O)[C@@H](O)[C@H]1O
< 5%,7.53%,CCCCCCCCCCCCCCCC(=O)NC[C@H]1O[C@@H](OC[C@@H](COC(=O)CCCCCCCCCCCCCCC)OC(=O)CCCCCCCCCCCCCCC)[C@@H](O)[C@@H](O)[C@@H]1O
